# Laboratory results published in patent US20120214821A1, “Lipidomic Biomarkers of Diabetes” (THE BROAD INSTITUTE, INC., priority 2011, published 2012).
# Key:
# plasma TAGs = settings: 20 non-diabetic individuals, after four doses of metformin 500 mg over two days (FIG. 6C)
# Method: (§1) Pharmacologic studies were performed as follows. […] After a washout period of 6 days, subjects received metformin 500 mg twice daily for two days in order to reduce hepatic gluconeogenesis, and then underwent a 75 g OGTT in the presence of metformin. […] From the first 164 subjects completing the protocol, 20 participants were selected who represented both high and low ends of the HOMA-IR range.
# (§2) OGTT causes an acute rise in plasma glucose, which then triggers a rise in insulin.
# (§3) After a washout period of 6 days, these 20 individuals were then administered four doses of metformin (500 mg) over two days. Although chronic metformin use decreases insulin resistance, its acute effect is to decrease hepatic glucose output, and as a result, lower plasma insulin (10).
# [1] = 20 non-diabetic individuals, after four doses of metformin 500 mg over two days; baseline 95 mg/dL; p=0.022
# Method: as §1, §2, §3
structure (smiles),measurement,setting,value
CN(C)C(=N)N=C(N)N [metformin],TAG response (change of plasma TAGs by carbon number and double bond content),plasma TAGs,"an increase in TAGs of lower carbon number and double bond content, and a decrease in TAGs of higher carbon number and double bond content"
same,mean plasma glucose,[1],86 mg/dL
